Results taken from ChEMBL document CHEMBL4190343, “Novel deoxyvasicinone derivatives as potent multitarget-directed ligands for the treatment of Alzheimer's disease: Design, synthesis, and biological evaluation” (Eur J Med Chem, 2017).
Activity calls are given as the source filed them. The calls are words filed in the database; no cut-off is given here.

B1: Acetylcholinesterase (Homo sapiens), P22303 (protein)
chain: MRPPQCLLHTPSLASPLLLLLLWLLGGGVGAEGREDAELLVTVRGGRLRGIRLKTPGGPVSAFLGIPFAEPPMGPRRFLPPEPKQPWSGVVDATTFQSVCYQYVDTLYPGFEGTEMWNPNRELSEDCLYLNVWTPYPRPTSPTPVLVWIYGGGFYSGASSLDVYDGRFLVQAERTVLVSMNYRVGAFGFLALPGSREAPGNVGLLDQRLALQWVQENVAAFGGDPTSVTLFGESAGAASVGMHLLSPPSRGLFHRAVLQSGAPNGPWATVGMGEARRRATQLAHLVGCPPGGTGGNDTELVACLRTRPAQVLVNHEWHVLPQESVFRFSFVPVVDGDFLSDTPEALINAGDFHGLQVLVGVVKDEGSYFLVYGAPGFSKDNESLISRAEFLAGVRVGVPQVSDLAAEAVVLHYTDWLHPEDPARLREALSDVVGDHNVVCPVAQLAGRLAAQGARVYAYVFEHRASTLSWPLWMGVPHGYEIEFIFGIPLDPSRNYTAEEKIFAQRLMRYWANFARTGDPNEPRDPKAPQWPPYTAGAQQYVSLDLRPLEVRRGLRAQACAFWNRFLPKLLSATDTLDEAERQWKAEFHRWSSYMVHWKNQFDHYSKQDRCSDL

Assays:
[1] = molecular target: T1, Acetylcholinesterase (Homo sapiens, UniProt P22303)
Description: Inhibition of human AChE pre-incubated for 6 mins before ATCI substrate addition and measured after 12 mins by DTNB reagent dependent UV-Vis spectrophotometry based Ellman's method

[2] = molecular target: Cholinesterase (Homo sapiens, UniProt P06276)
Sequence of Cholinesterase (P06276 whole entry): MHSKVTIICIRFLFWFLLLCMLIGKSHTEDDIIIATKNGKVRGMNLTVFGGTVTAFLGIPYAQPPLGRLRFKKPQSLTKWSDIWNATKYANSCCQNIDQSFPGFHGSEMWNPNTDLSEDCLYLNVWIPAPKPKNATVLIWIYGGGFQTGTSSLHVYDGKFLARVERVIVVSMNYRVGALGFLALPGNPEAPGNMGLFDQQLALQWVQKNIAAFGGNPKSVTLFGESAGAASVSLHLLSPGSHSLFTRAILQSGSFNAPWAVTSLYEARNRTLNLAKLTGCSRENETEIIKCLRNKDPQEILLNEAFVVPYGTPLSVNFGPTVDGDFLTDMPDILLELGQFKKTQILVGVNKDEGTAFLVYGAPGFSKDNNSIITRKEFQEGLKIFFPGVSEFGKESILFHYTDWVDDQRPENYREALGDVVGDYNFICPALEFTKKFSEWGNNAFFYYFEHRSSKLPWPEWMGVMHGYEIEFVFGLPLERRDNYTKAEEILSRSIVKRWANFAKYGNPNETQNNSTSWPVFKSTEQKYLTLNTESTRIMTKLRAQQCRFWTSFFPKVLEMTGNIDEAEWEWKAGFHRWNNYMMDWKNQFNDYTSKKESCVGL
Description: Inhibition of human BChE pre-incubated for 6 mins before ATCI substrate addition and measured after 12 mins by DTNB reagent dependent UV-Vis spectrophotometry based Ellman's method

[3] = Metal chelating activity against Cu2+ ions assessed as reduction in intrinsic fluorescence of compound at 50 uM incubated for 30 mins using CuSO4 by fluorescence spectrophotometry
[4] = Metal chelating activity against Fe3+ ions assessed as reduction in intrinsic fluorescence of compound at 50 uM incubated for 30 mins using FeCl3 by fluorescence spectrophotometry
[5] = Metal chelating activity against Zn2+ ions assessed as compound-Zn2+ complex formation at 50 uM incubated for 30 mins using ZnCl2 by UV-Visible spectrophotometry
[6] = Metal chelating activity against Fe3+ ions assessed as compound-Fe3+ complex formation at 50 uM incubated for 30 mins using FeCl3 by UV-Visible spectrophotometry
[7] = Metal chelating activity against Fe2+ ions assessed as compound-Fe2+ complex formation at 50 uM incubated for 30 mins using FeSO4 by UV-Visible spectrophotometry
[8] = Metal chelating activity against Cu2+ ions assessed as compound-Cu2+ complex formation at 50 uM incubated for 30 mins using CuSO4 by UV-Visible spectrophotometry
[9] = Metal chelating activity against Cu2+ ions assessed as 1:1 stoichiometry compound-Cu2+ complex formation at 50 uM incubated for 30 mins using CuSO4 by UV-Visible spectrophotometry
[10] = Metal chelating activity against Zn2+ ions assessed as reduction in intrinsic fluorescence of compound at 50 uM incubated for 30 mins using ZnCl2 by fluorescence spectrophotometry
[11] = molecular target: T1, Acetylcholinesterase; assay: Inhibition of human AChE assessed as inhibitor dissociation constant for enzyme-inhibitor complex pre-incubated for 6 mins before ATCI substrate addition and measured after 12 mins by DTNB reagent dependent Ellman's method based Lineweaver-Burk plot analysis
[12] = molecular target: T1, Acetylcholinesterase; assay: Inhibition of human AChE assessed as inhibitor dissociation constant for enzyme-substrate-inhibitor complex pre-incubated for 6 mins before ATCI substrate addition and measured after 12 mins by DTNB reagent dependent Ellman's method based Lineweaver-Burk plot analysis
[13] = Metal chelating activity against Fe2+ ions assessed as reduction in intrinsic fluorescence of compound at 50 uM incubated for 30 mins using FeSO4 by fluorescence spectrophotometry
[14] = compound: O=C(CNCc1cc(F)cc(F)c1)Nc1ccc2nc3n(c(=O)c2c1)CCC3; assay: Inhibition of human AChE assessed as ATCI substrate Vmax at 5 nM pre-incubated for 6 mins before ATCI substrate addition and measured after 12 mins by DTNB reagent dependent Ellman's method based Michaelis-Menten kinetics analysis (reference value: […] deltaA/min)
[15] = compound: O=C(CNCc1cc(F)cc(F)c1)Nc1ccc2nc3n(c(=O)c2c1)CCC3; assay: Inhibition of human AChE assessed as ATCI substrate Km at 10 nM pre-incubated for 6 mins before ATCI substrate addition and measured after 12 mins by DTNB reagent dependent Ellman's method based Michaelis-Menten kinetics analysis (reference value: […] mM)
[16] = compound: O=C(CNCc1cc(F)cc(F)c1)Nc1ccc2nc3n(c(=O)c2c1)CCC3; assay: Inhibition of human AChE assessed as ATCI substrate Vmax at 1 nM pre-incubated for 6 mins before ATCI substrate addition and measured after 12 mins by DTNB reagent dependent Ellman's method based Michaelis-Menten kinetics analysis (reference value: […] deltaA/min)
[17] = compound: O=C(CNCc1cc(F)cc(F)c1)Nc1ccc2nc3n(c(=O)c2c1)CCC3; assay: Inhibition of human AChE assessed as ATCI substrate Km at 5 nM pre-incubated for 6 mins before ATCI substrate addition and measured after 12 mins by DTNB reagent dependent Ellman's method based Michaelis-Menten kinetics analysis (reference value: […] mM)
[18] = compound: O=C(CNCc1cc(F)cc(F)c1)Nc1ccc2nc3n(c(=O)c2c1)CCC3; assay: Inhibition of human AChE assessed as ATCI substrate Vmax at 10 nM pre-incubated for 6 mins before ATCI substrate addition and measured after 12 mins by DTNB reagent dependent Ellman's method based Michaelis-Menten kinetics analysis (reference value: […] deltaA/min)
[19] = compound: O=C(CNCc1cc(F)cc(F)c1)Nc1ccc2nc3n(c(=O)c2c1)CCC3; assay: Inhibition of human AChE assessed as ATCI substrate Km at 1 nM pre-incubated for 6 mins before ATCI substrate addition and measured after 12 mins by DTNB reagent dependent Ellman's method based Michaelis-Menten kinetics analysis (reference value: […] mM)

Molecule	IC50 [1] [µM]	IC50 [2] [µM]	further results
O=c1c2ccccc2nc2n1CCC2 [DEOXYVASICINONE]	62.5	45.1	
CCCNCC(=O)Nc1ccc2nc3n(c(=O)c2c1)CCC3	0.31	1.19	
CCCCCCCCCCNCC(=O)Nc1ccc2nc3n(c(=O)c2c1)CCC3	0.0241	0.0372	
CCCCCCCCCCCCNCC(=O)Nc1ccc2nc3n(c(=O)c2c1)CCC3	0.0367	0.0268	
C=CCNCC(=O)Nc1ccc2nc3n(c(=O)c2c1)CCC3	0.0666	0.0166	
C=CCCNCC(=O)Nc1ccc2nc3n(c(=O)c2c1)CCC3	0.0133	0.0815	
CCCCNCC(=O)Nc1ccc2nc3n(c(=O)c2c1)CCC3	0.0212	0.107	
N#Cc1ccccc1CNCC(=O)Nc1ccc2nc3n(c(=O)c2c1)CCC3	0.0168	0.0299	
O=C(CNCc1ccccc1F)Nc1ccc2nc3n(c(=O)c2c1)CCC3	0.528	0.108	
O=C(CNCc1cc(F)cc(F)c1)Nc1ccc2nc3n(c(=O)c2c1)CCC3	0.00761	0.00235	Activity [3]: Active; Activity [4]: Active; Activity [5]: inactive; Activity [6]: Active; Activity [7]: Active; Activity [8]: Active; Activity [9]: Active; Activity [10]: inactive; Ki [11]: 0.00985 µM; Ki [12]: 0.0158 µM; Activity [13]: Active
O=C(CNCc1ccccc1[N+](=O)[O-])Nc1ccc2nc3n(c(=O)c2c1)CCC3	0.0307	0.103	
C#CCNCC(=O)Nc1ccc2nc3n(c(=O)c2c1)CCC3	0.0464	0.0124	
CCNCC(=O)Nc1ccc2nc3n(c(=O)c2c1)CCC3	0.557	1	
O=C(CNCc1ccccc1)Nc1ccc2nc3n(c(=O)c2c1)CCC3	0.231	0.145	
CC(C)=CCNCC(=O)Nc1ccc2nc3n(c(=O)c2c1)CCC3	0.0259	0.0163	
CCCCCCCCNCC(=O)Nc1ccc2nc3n(c(=O)c2c1)CCC3	0.0106	0.0457	
CCCCCCCCCCCCCCCCNCC(=O)Nc1ccc2nc3n(c(=O)c2c1)CCC3	0.00531	0.00435	
Cc1ccccc1CNCC(=O)Nc1ccc2nc3n(c(=O)c2c1)CCC3	0.119	0.107	
CCCCCCNCC(=O)Nc1ccc2nc3n(c(=O)c2c1)CCC3	0.0253	0.0105	
O=C(CNCCCc1ccccc1)Nc1ccc2nc3n(c(=O)c2c1)CCC3	0.00409	0.0207	
B1			Vmax [14]: 0.19 deltaA/min; Km [15]: 434 µM; Vmax [16]: 0.212 deltaA/min; Km [17]: 369 µM; Vmax [18]: 0.152 deltaA/min; Km [19]: 329 µM
